Test results from patent US20130190407A1, “CALCIUM RECEPTOR-ACTIVE MOLECULES” (NPS Pharmaceuticals, Inc., priority 1991, published 2013).

What was measured:
[1] = test system: healthy, post-menopausal person; experiment: Placebo-controlled single-dose, dose-escalation study in a human; assay type: in vivo
Description: A range of single oral doses was used to assess safety, tolerance, and changes in primary hyperparathyroidism markers (e.g., plasma concentrations of parathyroid hormone and ionized serum calcium) and of serum calcitonin.

[2] = molecular target: T1, parathyroid cell calcium receptor (Bos taurus, UniProt P35384); experiment: Cl- current in Xenopus oocytes injected with bovine parathyroid cell poly(A)+-mRNA; assay type: cell-based; parameters: Whole pieces of gland were used to prepare mRNA that directs the expression of the calcium receptor in Xenopus oocytes; expressed in transfected cells; host or cells: Xenopus laevis oocytes injected with total poly(A)+ mRNA from bovine parathyroid glands; settings: 30 μM
T1 sequence (P35384 20-1085): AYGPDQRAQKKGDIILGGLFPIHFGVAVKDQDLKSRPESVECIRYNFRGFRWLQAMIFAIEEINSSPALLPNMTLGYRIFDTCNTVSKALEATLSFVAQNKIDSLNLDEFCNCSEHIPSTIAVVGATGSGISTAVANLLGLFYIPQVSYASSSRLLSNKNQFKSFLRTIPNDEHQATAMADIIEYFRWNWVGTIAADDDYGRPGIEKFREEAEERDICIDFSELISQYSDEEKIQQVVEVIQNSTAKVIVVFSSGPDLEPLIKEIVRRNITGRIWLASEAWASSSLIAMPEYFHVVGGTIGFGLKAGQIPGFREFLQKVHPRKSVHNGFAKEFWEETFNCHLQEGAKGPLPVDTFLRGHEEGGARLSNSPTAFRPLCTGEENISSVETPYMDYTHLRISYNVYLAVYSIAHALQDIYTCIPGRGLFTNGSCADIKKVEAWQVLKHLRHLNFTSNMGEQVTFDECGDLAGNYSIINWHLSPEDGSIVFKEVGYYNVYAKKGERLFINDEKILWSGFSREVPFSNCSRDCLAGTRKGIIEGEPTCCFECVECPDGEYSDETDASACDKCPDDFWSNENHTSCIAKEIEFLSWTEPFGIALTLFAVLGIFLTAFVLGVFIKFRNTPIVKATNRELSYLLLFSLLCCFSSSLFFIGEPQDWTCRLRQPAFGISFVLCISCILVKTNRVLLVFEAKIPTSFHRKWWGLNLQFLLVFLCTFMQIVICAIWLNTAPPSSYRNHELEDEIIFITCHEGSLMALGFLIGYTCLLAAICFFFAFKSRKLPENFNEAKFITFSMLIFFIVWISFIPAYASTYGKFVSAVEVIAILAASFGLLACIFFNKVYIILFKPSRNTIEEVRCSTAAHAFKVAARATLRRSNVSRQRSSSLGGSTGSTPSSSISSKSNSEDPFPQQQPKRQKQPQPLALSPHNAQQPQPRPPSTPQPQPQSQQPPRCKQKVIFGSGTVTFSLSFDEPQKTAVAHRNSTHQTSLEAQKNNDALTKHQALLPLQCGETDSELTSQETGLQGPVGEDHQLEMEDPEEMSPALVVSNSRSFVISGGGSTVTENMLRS
Procedure: Following incubation, an oocyte was placed into a 100-μl plastic chamber and superfused with MBS at a flow rate of 0.5 ml/min using a peristaltic pump. Test molecules or inorganic polycations were added by rapidly moving the tubing into different buffers. Recording and current-passing electrodes were constructed from thin-wall capillary tubing pulled to a resistance of 1-3 Mohms and filled with 3 M KCl. […] Currents were recorded directly onto a strip chart recorder.
Dissociated bovine parathyroid cells were used to further explore the mechanism of action of NPS R-467 at the receptor level. […] It does, however, elicit responses in parathyroid cells and in oocytes when a small amount of extracellular Ca^2+ is present.

Bovine parathyroid cells [3] = assay type: cell-based; settings: 10 μM isoproterenol 15 min; no pertussis toxin; 2.0 mM Ca2+, 200 μM spermine, 30 μM neomycin B, 2 μg/ml protamine; mean ± SEM
Procedure: This section describes measuring cyclic AMP levels. Cells were incubated as above for PTH secretion studies and at the end of the incubation, a 0.15-ml sample was taken and transferred to 0.85 ml of hot (70° C.) water and heated at this temperature for 5-10 minutes. The tubes were subsequently frozen and thawed several times and the cellular debris sedimented by centrifugation. Portions of the supernatant were acetylated and cyclic AMP concentrations determined by radioimmunoassay.
Bovine parathyroid cells were cultured for 16 hours with or without 100 ng/ml pertussis toxin. […] Each value is the mean±SEM of three experiments.

calcium receptor = molecular target: T2, calcium receptor (Bos taurus, UniProt P35384); experiment: 45Ca2+ release from Xenopus oocytes injected with bovine parathyroid mRNA; assay type: cell-based; settings: 10 mM for 20 min, compared to mock challenge with buffer
T2 construct: Whole pieces of gland were used to prepare mRNA that directs the expression of the calcium receptor in Xenopus oocytes; expressed in transfected cells; host or cells: Xenopus laevis oocytes injected with total poly(A)+ mRNA from bovine parathyroid glands
T2 sequence (P35384 20-1085): T1 sequence (P35384 20-1085)
Description: For example, we have been able to detect calcium receptor expression in oocytes by measuring ^45Ca^2+ mobilization. […] Prior to being stimulated, oocytes were loaded with ^45Ca^2+. […] The assay is sensitive enough for use in cloning the calcium receptor, and has the advantage of a higher throughput than the electrophysiological measurement of Ca^2+-activated Cl^− current.

Bovine parathyroid cells [4] = experiment: PTH secretion from bovine parathyroid cells; assay type: cell-based; settings: concentrations that mobilize intracellular Ca2+
Procedure: PTH secretion was measured by first suspending cells in PCB containing 0.5 mM CaCl2 and 0.1% BSA.
Counting of samples and data reduction were performed on a Packard Cobra 5005 gamma counter.

## COc1cccc([C@@H](C)NCCCc2ccccc2Cl)c1 [NPS R-568, (R)-(+)-N-[3-(2-chlorophenyl)propyl]-α-methyl-3-methoxybenzylamine]
[1]; 20 mg single oral dose, 1 h
  Serum PTH: 18 pg/mL
[1]; 240 mg single oral dose, 0.5 h
  Serum PTH: 18 pg/mL
[1]; at higher doses
  serum ionized calcium concentration: decrease in serum ionized calcium concentration
[1]; at the doses studied
  serum calcitonin: no apparent change in serum calcitonin
[1]; single oral doses
  plasma PTH concentration: transient dose-dependent decrease in plasma PTH concentration

## COc1cccc([C@@H](C)NCCCc2ccccc2)c1 (single isomer, unassigned) [NPS R-467]
[2]
  Cl- current: rapid increase in Cl^− current

## NC[C@@H]1O[C@H](O[C@H]2[C@@H](O)[C@H](O[C@@H]3[C@@H](O)[C@H](N)C[C@H](N)[C@H]3O[C@H]3O[C@H](CN)[C@@H](O)[C@H](O)[C@H]3N)O[C@@H]2CO)[C@H](N)[C@@H](O)[C@@H]1O [Neomycin B, neomycin B]
Bovine parathyroid cells [3]
  cyclic AMP (% of control), control: 28 ± 8 % of control
Calcium receptor
  increase in 45Ca2+ release: 76%
Bovine parathyroid cells [4]
  PTH secretion: inhibited PTH secretion to the same extent as extracellular Ca^2+
